In ChEMBL document CHEMBL3822442, “Synthesis and Pharmacological Characterization of Novel Glucagon-like Peptide-2 (GLP-2) Analogues with Low Systemic Clearance” (J Med Chem, 2016):
Active and inactive are the calls of the source. The calls are words filed in the database; no cut-off is given here.

What was measured:
[1] = tested on: HEK293; assay: Selectivity ratio of EC50 for human GLP1R expressed in HEK293 cells to EC50 for human GLP2R expressed in HEK293; assay type: cell-based
[2] = target: T1, Glucagon-like peptide 2 receptor (Homo sapiens) (UniProt O95838); assay: Potency index, ratio of compound EC50 to compound 2 EC50 for human GLP2R expressed in HEK293 cells; assay type: cell-based
T1 sequence (whole entry): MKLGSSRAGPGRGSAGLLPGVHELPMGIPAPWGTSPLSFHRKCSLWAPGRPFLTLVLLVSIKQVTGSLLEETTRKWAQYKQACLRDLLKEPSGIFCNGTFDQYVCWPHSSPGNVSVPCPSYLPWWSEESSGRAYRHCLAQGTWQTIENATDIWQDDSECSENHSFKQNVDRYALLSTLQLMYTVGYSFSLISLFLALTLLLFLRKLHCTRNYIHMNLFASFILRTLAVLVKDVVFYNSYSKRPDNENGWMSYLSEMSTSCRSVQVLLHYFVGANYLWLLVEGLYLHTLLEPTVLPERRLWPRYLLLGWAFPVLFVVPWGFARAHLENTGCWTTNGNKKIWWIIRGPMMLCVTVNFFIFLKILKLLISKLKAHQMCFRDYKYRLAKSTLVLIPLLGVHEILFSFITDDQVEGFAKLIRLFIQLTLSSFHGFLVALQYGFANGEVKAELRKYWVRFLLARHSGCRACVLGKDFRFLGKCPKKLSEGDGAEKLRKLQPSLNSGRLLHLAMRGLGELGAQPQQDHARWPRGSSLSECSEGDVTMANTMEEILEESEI

[3] = target: Glucagon-like peptide 1 receptor (Homo sapiens, UniProt P43220); assay: Agonist activity at human GLP1R expressed in HEK293 cells after 5 hrs by luciferase reporter gene assay; assay type: cell-based
[4] = target: T2, Glucagon-like peptide 2 receptor (Homo sapiens, UniProt O95838); assay: Agonist activity at human GLP2R expressed in HEK293 cells after 5 hrs by luciferase reporter gene assay; assay type: cell-based
T2 sequence (O95838 whole entry): T1 sequence (whole entry)

[5] = target: Glucagon receptor (Homo sapiens) (UniProt P47871); assay: Agonist activity at human GCGR expressed in HEK293 cells after 5 hrs by luciferase reporter gene assay; assay type: cell-based
[6] = Systemic clearance in Sprague-Dawley rat at 0.2 mg/kg, iv through cassette dosing measured up to 300 mins by LC/MS/MS analysis; assay type: ADME, organism-based; conditions: in vivo

Sequence of Glucagon-like peptide 1 receptor (P43220 whole entry): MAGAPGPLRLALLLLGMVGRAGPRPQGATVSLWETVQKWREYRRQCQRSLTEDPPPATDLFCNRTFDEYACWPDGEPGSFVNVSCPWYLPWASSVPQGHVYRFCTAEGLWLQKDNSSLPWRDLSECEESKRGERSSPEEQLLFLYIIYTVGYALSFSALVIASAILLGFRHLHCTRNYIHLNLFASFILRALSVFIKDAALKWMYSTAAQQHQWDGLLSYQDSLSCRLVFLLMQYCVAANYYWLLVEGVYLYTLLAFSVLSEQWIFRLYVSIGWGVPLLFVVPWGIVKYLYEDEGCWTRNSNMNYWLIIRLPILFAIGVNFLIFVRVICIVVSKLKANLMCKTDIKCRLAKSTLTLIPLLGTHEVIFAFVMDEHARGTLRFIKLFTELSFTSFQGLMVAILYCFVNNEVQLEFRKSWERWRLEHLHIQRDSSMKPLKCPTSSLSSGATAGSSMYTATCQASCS
Sequence of Glucagon receptor (Homo sapiens) (P47871 whole entry): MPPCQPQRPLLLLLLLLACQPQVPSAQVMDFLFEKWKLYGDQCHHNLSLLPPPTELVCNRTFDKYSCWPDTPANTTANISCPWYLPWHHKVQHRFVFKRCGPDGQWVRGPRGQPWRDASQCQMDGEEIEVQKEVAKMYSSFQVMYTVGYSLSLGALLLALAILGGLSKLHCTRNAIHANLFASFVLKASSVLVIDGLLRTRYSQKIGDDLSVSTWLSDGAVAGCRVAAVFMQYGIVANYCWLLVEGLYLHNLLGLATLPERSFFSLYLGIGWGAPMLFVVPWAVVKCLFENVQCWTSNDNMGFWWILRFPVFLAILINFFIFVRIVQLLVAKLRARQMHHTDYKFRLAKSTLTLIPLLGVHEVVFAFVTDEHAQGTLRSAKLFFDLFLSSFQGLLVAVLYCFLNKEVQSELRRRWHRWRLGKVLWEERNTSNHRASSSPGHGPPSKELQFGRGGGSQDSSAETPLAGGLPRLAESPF

H-HGDGSFSDEMNTILDNLAARDFINWLIQTKI-NH2
Ratio EC50 [1]: > 2000
Ratio EC50 [2]: 5.3
EC50 [3]: > 1 µM
EC50 [4]: 0.00048 µM

CCCCC(NC(=O)[C@H](CCC(=O)O)NC(=O)[C@@H](CC(=O)O)NC(=O)[C@H](CO)NC(=O)[C@H](Cc1ccccc1)NC(=O)[C@H](CO)NC(=O)CNC(=O)[C@H](CC(=O)O)NC(=O)CNC(=O)[C@@H](N)Cc1cnc[nH]1)C(=O)N[C@@H](CC(N)=O)C(=O)N[C@H](C(=O)N[C@H](C(=O)N[C@@H](CC(C)C)C(=O)N[C@@H](CC(=O)O)C(=O)N[C@@H](CC(N)=O)C(=O)N[C@@H](CC(C)C)C(=O)N[C@@H](C)C(=O)N[C@@H](C)C(=O)N[C@@H](CCCNC(=N)N)C(=O)N[C@@H](CC(=O)O)C(=O)N[C@@H](Cc1ccccc1)C(=O)N[C@H](C(=O)N[C@@H](CC(N)=O)C(=O)N[C@@H](Cc1c[nH]c2ccccc12)C(=O)N[C@@H](CC(C)C)C(=O)N[C@H](C(=O)N[C@@H](CCC(N)=O)C(=O)N[C@H](C(=O)N[C@@H](CCCCN)C(N)=O)[C@@H](C)O)[C@@H](C)CC)[C@@H](C)CC)[C@@H](C)CC)[C@@H](C)O (stereo partly specified)
Ratio EC50 [1]: > 62
Ratio EC50 [2]: 73
Activity [5]: inactive
EC50 [3]: > 1 µM
EC50 [4]: 0.016 µM

H-HGDGSFSDEMNTILDNLAARDFINWLI-NH2
Ratio EC50 [1]: > 900
Ratio EC50 [2]: 12
EC50 [3]: > 1 µM
EC50 [4]: 0.0011 µM

CCCCC(NC(=O)[C@H](CCC(=O)O)NC(=O)[C@H](CC(=O)O)NC(=O)[C@H](CO)NC(=O)[C@H](Cc1ccccc1)NC(=O)[C@H](CO)NC(=O)CNC(=O)[C@H](CC(=O)O)NC(=O)CNC(=O)[C@@H](N)Cc1cnc[nH]1)C(=O)N[C@@H](CC(N)=O)C(=O)N[C@H](C(=O)N[C@H](C(=O)N[C@@H](CC(C)C)C(=O)N[C@@H](CC(=O)O)C(=O)N[C@@H](CC(N)=O)C(=O)N[C@@H](CC(C)C)C(=O)N[C@@H](C)C(=O)N[C@H](C)C(=O)N[C@@H](CCCNC(=N)N)C(=O)N[C@@H](CC(=O)O)C(=O)N[C@@H](Cc1ccccc1)C(=O)N[C@H](C(=O)N[C@@H](CC(N)=O)C(=O)N[C@@H](Cc1c[nH]c2ccccc12)C(=O)N[C@@H](CC(C)C)C(=O)N[C@H](C(=O)N[C@@H](CCC(N)=O)C(=O)N[C@H](C(=O)N[C@@H](CCCCN)C(N)=O)[C@@H](C)O)[C@@H](C)CC)[C@@H](C)CC)[C@@H](C)CC)[C@@H](C)O (stereo partly specified)
Ratio EC50 [1]: > 71
Ratio EC50 [2]: 64
Activity [5]: inactive
EC50 [3]: > 1 µM
EC50 [4]: 0.014 µM

CCCCC(NC(=O)[C@H](CCC(=O)O)NC(=O)[C@H](CC(=O)O)NC(=O)[C@H](CO)NC(=O)[C@H](Cc1ccccc1)NC(=O)[C@H](CO)NC(=O)CNC(=O)[C@H](CC(=O)O)NC(=O)CNC(=O)[C@@H](N)Cc1cnc[nH]1)C(=O)N[C@H](CCN)C(=O)N[C@H](C(=O)N[C@H](C(=O)N[C@@H](CC(C)C)C(=O)N[C@@H](CC(=O)O)C(=O)N[C@@H](CC(N)=O)C(=O)N[C@@H](CC(C)C)C(=O)N[C@@H](C)C(=O)N[C@@H](C)C(=O)N[C@@H](CCCNC(=N)N)C(=O)N[C@@H](CC(=O)O)C(=O)N[C@@H](Cc1ccccc1)C(=O)N[C@H](C(=O)N[C@@H](CC(N)=O)C(=O)N[C@@H](Cc1c[nH]c2ccccc12)C(=O)N[C@@H](CC(C)C)C(=O)N[C@H](C(=O)N[C@@H](CCC(N)=O)C(=O)N[C@H](C(=O)N[C@@H](CCCCN)C(N)=O)[C@@H](C)O)[C@@H](C)CC)[C@@H](C)CC)[C@@H](C)CC)[C@@H](C)O (stereo partly specified)
Ratio EC50 [1]: > 1500
clearance [6]: 0.582 L/h/kg
Activity [5]: inactive
EC50 [3]: > 1 µM
EC50 [4]: 0.00066 µM

CCCCC(NC(=O)[C@H](CCC(=O)O)NC(=O)[C@H](CC(=O)O)NC(=O)[C@H](CO)NC(=O)[C@H](Cc1ccccc1)NC(=O)[C@H](CO)NC(=O)CNC(=O)[C@H](CC(=O)O)NC(=O)CNC(=O)[C@@H](N)Cc1cnc[nH]1)C(=O)N[C@H](Cc1cnc[nH]1)C(=O)N[C@H](C(=O)N[C@H](C(=O)N[C@@H](CC(C)C)C(=O)N[C@@H](CC(=O)O)C(=O)N[C@@H](CC(N)=O)C(=O)N[C@@H](CC(C)C)C(=O)N[C@@H](C)C(=O)N[C@@H](C)C(=O)N[C@@H](CCCNC(=N)N)C(=O)N[C@@H](CC(=O)O)C(=O)N[C@@H](Cc1ccccc1)C(=O)N[C@H](C(=O)N[C@@H](CC(N)=O)C(=O)N[C@@H](Cc1c[nH]c2ccccc12)C(=O)N[C@@H](CC(C)C)C(=O)N[C@H](C(=O)N[C@@H](CCC(N)=O)C(=O)N[C@H](C(=O)N[C@@H](CCCCN)C(N)=O)[C@@H](C)O)[C@@H](C)CC)[C@@H](C)CC)[C@@H](C)CC)[C@@H](C)O (stereo partly specified)
Ratio EC50 [1]: > 5000
clearance [6]: 0.0438 L/h/kg
Activity [5]: inactive
EC50 [3]: > 1 µM
EC50 [4]: 0.0002 µM

H-HGDGSFSDEMNTILDNLAARDFINWLIQTKIT-NH2
Ratio EC50 [1]: > 3400
Ratio EC50 [2]: 3.2
EC50 [3]: > 1 µM
EC50 [4]: 0.00029 µM

H-HGDGSFSDEMNTILDNLAARDFINW-NH2
Ratio EC50 [2]: > 330
EC50 [3]: > 1 µM
EC50 [4]: > 0.03 µM

CCCCC(NC(=O)[C@H](CCC(=O)O)NC(=O)[C@H](CC(=O)O)NC(=O)[C@H](CO)NC(=O)[C@H](Cc1ccccc1)NC(=O)[C@H](CO)NC(=O)CNC(=O)[C@H](CC(=O)O)NC(=O)CNC(=O)[C@@H](N)Cc1cnc[nH]1)C(=O)N[C@@H](CC(N)=O)C(=O)N[C@H](C(=O)N[C@H](C(=O)N[C@@H](CC(C)C)C(=O)N[C@@H](CC(=O)O)C(=O)N[C@@H](CC(N)=O)C(=O)N[C@@H](CC(C)C)C(=O)N[C@@H](C)C(=O)N[C@@H](C)C(=O)N[C@@H](CCCNC(=N)N)C(=O)N[C@@H](CC(=O)O)C(=O)N[C@@H](Cc1ccccc1)C(=O)N[C@H](C(=O)N[C@@H](CC(N)=O)C(=O)N[C@H](Cc1c[nH]c2ccccc12)C(=O)N[C@@H](CC(C)C)C(=O)N[C@H](C(=O)N[C@@H](CCC(N)=O)C(=O)N[C@H](C(=O)N[C@@H](CCCCN)C(N)=O)[C@@H](C)O)[C@@H](C)CC)[C@@H](C)CC)[C@@H](C)CC)[C@@H](C)O (stereo partly specified)
Ratio EC50 [2]: > 130
Activity [5]: inactive
EC50 [3]: > 1 µM
EC50 [4]: > 0.03 µM

H-HGDGSFSDEMNTILDNLAARDFINWLIQT-NH2
Ratio EC50 [1]: > 1500
Ratio EC50 [2]: 7
EC50 [3]: > 1 µM
EC50 [4]: 0.00063 µM

CCCCC(NC(=O)[C@@H](CCC(=O)O)NC(=O)[C@@H](CC(=O)O)NC(=O)[C@@H](CO)NC(=O)[C@@H](Cc1ccccc1)NC(=O)[C@@H](CO)NC(=O)CNC(=O)[C@@H](CC(=O)O)NC(=O)CNC(=O)[C@@H](N)Cc1cnc[nH]1)C(=O)N[C@@H](Cc1cccc(Cl)c1)C(=O)N[C@@H](C(=O)N[C@@H](C(=O)N[C@H](CC(C)C)C(=O)N[C@H](CC(=O)O)C(=O)NC(Cc1ccc2ccccc2c1)C(=O)N[C@@H](CC(C)C)C(=O)N[C@@H](C)C(=O)N[C@@H](C)C(=O)N[C@@H](CCCNC(=N)N)C(=O)N[C@@H](CC(=O)O)C(=O)N[C@@H](Cc1ccccc1)C(=O)N[C@H](C(=O)N[C@@H](CC(N)=O)C(=O)N[C@H](Cc1c[nH]c2ccccc12)C(=O)N[C@H](CC(C)C)C(=O)N[C@@H](C(=O)N[C@H](CCC(N)=O)C(=O)N[C@@H](C(=O)N[C@H](CCCCN)C(=O)N[C@@H](C(=O)N[C@@H](C(=O)N[C@@H](CC(=O)O)C(N)=O)[C@H](C)O)[C@@H](C)CC)[C@H](C)O)[C@@H](C)CC)[C@H](C)CC)[C@@H](C)CC)[C@H](C)O (stereo partly specified)
Ratio EC50 [1]: > 1900
clearance [6]: 0.0066 L/h/kg
EC50 [3]: > 1 µM
EC50 [4]: 0.00051 µM

H-HGDGSFSDEMNTILDNLAARDFINWLIQ-NH2
Ratio EC50 [1]: > 900
Ratio EC50 [2]: 12
EC50 [3]: > 1 µM
EC50 [4]: 0.0011 µM
